According to patent US20230159469A1, “NOVEL PHTHALAZINE DERIVATIVE HAVING ECTONUCLOEOTIDE PYROPHOSPHATASE/PHOSPHODIESTE RASE INHIBITORY ACTIVITY, AND USE THEREOF” (TXINNO BIOSCIENCE INC., priority 2020, published 2023):
Structures can show the parent of a compound that is named as a salt.

Molecular target: T1, human recombinant ENPP1 (Homo sapiens, UniProt P22413)
T1 construct: purchased R & D systems
T1 sequence (P22413 1-925): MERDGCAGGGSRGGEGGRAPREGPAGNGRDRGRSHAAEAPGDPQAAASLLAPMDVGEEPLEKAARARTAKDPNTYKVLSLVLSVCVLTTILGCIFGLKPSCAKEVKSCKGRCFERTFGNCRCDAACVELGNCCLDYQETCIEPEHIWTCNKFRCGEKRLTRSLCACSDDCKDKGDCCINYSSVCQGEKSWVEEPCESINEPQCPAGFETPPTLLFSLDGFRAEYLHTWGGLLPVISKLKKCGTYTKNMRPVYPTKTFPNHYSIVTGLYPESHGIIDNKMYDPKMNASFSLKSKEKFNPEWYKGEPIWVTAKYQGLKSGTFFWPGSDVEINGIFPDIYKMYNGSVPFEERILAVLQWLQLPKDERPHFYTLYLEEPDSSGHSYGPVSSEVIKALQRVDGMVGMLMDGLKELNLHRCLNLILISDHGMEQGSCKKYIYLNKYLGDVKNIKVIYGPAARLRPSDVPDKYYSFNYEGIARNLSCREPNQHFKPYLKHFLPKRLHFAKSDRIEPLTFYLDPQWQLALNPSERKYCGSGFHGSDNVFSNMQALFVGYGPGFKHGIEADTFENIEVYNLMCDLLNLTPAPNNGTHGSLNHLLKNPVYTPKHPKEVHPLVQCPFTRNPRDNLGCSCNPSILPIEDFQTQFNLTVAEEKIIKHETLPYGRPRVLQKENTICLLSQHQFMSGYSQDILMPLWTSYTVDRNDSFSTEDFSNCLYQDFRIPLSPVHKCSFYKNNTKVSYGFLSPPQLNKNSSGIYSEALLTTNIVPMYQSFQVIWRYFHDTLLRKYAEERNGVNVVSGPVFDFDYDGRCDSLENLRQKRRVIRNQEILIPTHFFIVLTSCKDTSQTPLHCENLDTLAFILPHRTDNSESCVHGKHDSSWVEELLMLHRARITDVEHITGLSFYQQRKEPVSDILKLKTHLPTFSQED
Experiment: ENPP1 enzyme assay with cGAMP substrate (AMP-Glo luminescence)
Format: biochemical
Conditions: human recombinant ENPP1 3 ng/reaction, cGAMP 5 μM, 37° C. 90 minutes, read-out: Enzymatic activity (ENPP1 IC50)
Method in brief: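 Human ENPP1 hydrolysis of 5 μM cGAMP was run for 90 min at 37° C in 50 mM Tris pH 8.5, 250 mM NaCl, 0.5 mM CaCl2, 1 μM ZnCl2, 5% glycerol, 1% DMSO. AMP product was quantified by AMP-Glo luminescence; IC50 came from 3-parameter fits of % residual activity, averaged over at least two runs.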

Cn1nc(-c2ccc(CNS(N)(=O)=O)cc2)c2ccccc2c1=O [Compound No. 97, N-(4-(3-methyl-4-oxo-3,4-dihydrophthalazin-1-yl)benzyl)sulfamide hydrochloride]
IC50: < 1 µM

COc1cc2c(-c3ccc4c(c3)CCN(S(=O)(=O)NC(=O)OC(C)(C)C)C4)n[nH]c(=O)c2cc1OC [Compound No. 85, tert-butyl ((6-(6,7-dimethoxy-4-oxo-3,4-dihydrophthalazin-1-yl)-3,4-dihydroisoquinolin-2(1H)-yl)sulfonyl)carbamate]
IC50: > 10 µM

COc1cc2c(Nc3ccc(NS(N)(=O)=O)cc3)nn(C)c(=O)c2cc1OC [Compound No. 140, N-(4-(6,7-dimethoxy-3-methyl-4-oxo-3,4-dihydrophthalazin-1-yl)-amino)phenyl)sulfamide hydrochloride]
IC50: > 10 µM

CC(C)(C)OC(=O)NCc1ccc(-c2nn(Cc3ccc(F)cc3)c(=O)c3ccccc23)cc1 [Compound No. 14, tert-butyl (4-(3-(4-fluorobenzyl)-4-oxo-3,4-dihydrophthalazin-1-yl)benzyl)carbamate]
IC50: > 10 µM

NS(=O)(=O)NCCC1CCN(c2n[nH]c(=O)c3ccccc23)CC1 [Compound No. 142, N-(2-(1-(4-oxo-3,4-dihydrophthalazin-1-yl)piperidin-4-yl)ethyl)sulfamide trifluoroacetic acid]
IC50: > 10 µM

COc1cc2c(-c3ccc(CNS(N)(=O)=O)cc3)n[nH]c(=O)c2cc1OC [Compound No. 104, N-(4-(6,7-dimethoxy-4-oxo-3,4-dihydrophthalazin-1-yl)benzyl)sulfamide hydrochloride]
IC50: < 1 µM

Cn1nc(-c2ccc(CS(=O)(=O)N3CCOCC3)cc2)c2ccccc2c1=O [Example 201, 2-methyl-4-(4-((morpholinosulfonyl)methyl)phenyl)phthalazin-1 (2H)-one]
IC50: > 10 µM

Cn1nc(Cc2ccc(NS(N)(=O)=O)cc2)c2ccccc2c1=O [Example 181, N-(4-((3-methyl-4-oxo-3,4-dihydrophthalazin-1-yl)methyl)phenyl)sulfamide hydrochloride]
IC50: < 1 µM

COc1ccc2c(=O)[nH]nc(-c3ccc(CNS(N)(=O)=O)cc3)c2c1 [Compound No. 103, N-(4-(7-methoxy-4-oxo-3,4-dihydrophthalazin-1-yl)benzyl)sulfamide hydrochloride]
IC50: < 1 µM

COc1cc2c(-c3ccc(CNS(N)(=O)=O)c(F)c3F)n[nH]c(=O)c2cc1OC [Compound No. 115, N-(4-(6,7-dimethoxy-4-oxo-3,4-dihydrophthalazin-1-yl)-2,3-difluorobenzyl)sulfamide hydrochloride]
IC50: 1 to 10 µM

CC(C)(C)OC(=O)NS(=O)(=O)NCc1ccc(-c2nn(-c3ccccc3)c(=O)c3ccccc23)cc1 [Compound No. 69, tert-butyl (N-(4-(4-oxo-3-phenyl-3,4-dihydrophthalazin-1-yl)benzyl)sulfamoyl)carbamate]
IC50: > 10 µM

Cn1nc(-c2ccc3c(c2)CCN(S(=O)(=O)NC(=O)OC(C)(C)C)C3)c2ccccc2c1=O [Compound No. 84, tert-butyl ((6-(3-methyl-4-oxo-3,4-dihydrophthalazin-1-yl)-3,4-dihydroisoquinolin-2(1H)-yl)sulfonyl)carbamate]
IC50: > 10 µM

Cn1nc(-c2ccc(NS(N)(=O)=O)cc2)c2ccccc2c1=O [Compound No. 92, N-(4-(3-methyl-4-oxo-3,4-dihydrophthalazin-1-yl)phenyl)sulfamide]
IC50: < 1 µM

COc1cc2c(-c3ccc4c(c3)CCN(S(N)(=O)=O)C4)nn(C)c(=O)c2cc1OC [Compound No. 131, 6-(6,7-dimethoxy-3-methyl-4-oxo-3,4-dihydrophthalazin-1-yl)-3,4-dihydroisoquinoline-2(1H)-sulfonamide hydrochloride]
IC50: 1 to 10 µM

CC(C)(C)OC(=O)NS(=O)(=O)NCC1CCN(c2n[nH]c(=O)c3ccccc23)CC1 [Compound No. 136, tert-butyl N-((1-(4-oxo-3,4-dihydrophthalazin-1-yl)piperidin-4-yl)methyl)sulfamoyl carbamate]
IC50: > 10 µM

COc1cc2c(-c3ccc4c(c3)CCNC4)n[nH]c(=O)c2cc1OC [Compound No. 57, 6,7-dimethoxy-4-(1,2,3,4-tetrahydroisoquinolin-6-yl)phthalazin-1(2H)-one hydrochloride]
IC50: 1 to 10 µM

COc1cc2c(-c3ccc4c(c3)CNCC4)n[nH]c(=O)c2cc1OC [Compound No. 59, 6,7-dimethoxy-4-(1,2,3,4-tetrahydroisoquinolin-7-yl) phthalazin-1(2H)-one]
IC50: > 10 µM

COc1cc2c(Cc3cccc(NC(=O)OC(C)(C)C)c3)nn(C)c(=O)c2cc1OC [Compound No. 146, tert-butyl (3-((6,7-dimethoxy-3-methyl-4-oxo-3,4-dihydrophthalazin-1-yl)methyl)phenyl)carbamate]
IC50: > 10 µM

COc1cc2c(-c3ccc(CN(C)S(N)(=O)=O)cc3F)n[nH]c(=O)c2cc1OC [Compound No. 114, N-(4-(6,7-dimethoxy-4-oxo-3,4-dihydrophthalazin-1-yl)-3-fluorobenzyl)-N-methyl sulfamide hydrochloride]
IC50: 1 to 10 µM

NS(=O)(=O)NCc1ccc(-c2n[nH]c(=O)c3ccccc23)cc1 [Compound No. 96, N-(4-(4-oxo-3,4-dihydrophthalazin-1-yl)benzyl)sulfamide hydrochloride]
IC50: < 1 µM

COc1cc2c(Cc3ccc(NC(=O)OC(C)(C)C)cc3)nn(C)c(=O)c2cc1OC [Compound No. 150, tert-butyl (4-((6,7-dimethoxy-3-methyl-4-oxo-3,4-dihydrophthalazin-1-yl)methyl)phenyl)carbamate]
IC50: > 10 µM

COc1cc2c(Cc3ccc(NS(N)(=O)=O)cc3)nn(C)c(=O)c2cc1OC [Example 183, N-(4-((6,7-dimethoxy-3-methyl-4-oxo-3,4-dihydrophthalazin-1-yl)methyl)phenyl)sulfamide hydrochloride]
IC50: < 1 µM

COc1ccc2c(=O)n(C)nc(-c3ccc(CNS(N)(=O)=O)cc3)c2c1 [Compound No. 105, N-(4-(7-methoxy-3-methyl-4-oxo-3,4-dihydrophthalazin-1-yl)benzyl)sulfamide hydrochloride]
IC50: 1 to 10 µM

COc1cc2c(-c3ccc(CN(C)S(N)(=O)=O)c(F)c3F)n[nH]c(=O)c2cc1OC [Compound No. 117, N-(4-(6,7-dimethoxy-4-oxo-3,4-dihydrophthalazin-1-yl)-2,3-difluorobenzyl)-N-methyl sulfamide hydrochloride]
IC50: > 10 µM

Cn1nc(-c2cccc(CNC(=O)OC(C)(C)C)c2)c2ccccc2c1=O [Compound No. 6, tert-butyl 3-(3-methyl-4-oxo-3,4-dihydrophthalazin-1-yl) benzyl carbamate]
IC50: > 10 µM

NCc1ccc(-c2nn(Cc3ccccc3)c(=O)c3ccccc23)cc1 [Compound No. 41, 4-(4-aminomethyl)phenyl)-2-benzylphthalazin-1(2H)-one hydrochloride]
IC50: 1 to 10 µM

Cn1nc(Cc2ccc(NC(=O)OC(C)(C)C)cc2)c2ccccc2c1=O [Compound No. 148, tert-butyl (4-((3-methyl-4-oxo-3,4-dihydrophthalazin-1-yl)methyl)phenyl)carbamate]
IC50: > 10 µM

CC(C)(C)OC(=O)Nc1ccc(Cc2n[nH]c(=O)c3ccccc23)cc1 [Compound No. 147, tert-butyl (4-((4-oxo-3,4-dihydrophthalazin-1-yl)methyl)phenyl)carbamate]
IC50: > 10 µM
